Tested on: mouse and human plasma stability, LC/MS/MS, 180 min
Experiment: compound stability in mouse and human plasma, late-stage follow-up, ADME assay for GPR30 and estrogen receptor ligands, biochemical (AID 623907)
Conditions: at 1 µM, stronger effect = higher value

- percent remaining: 94.5%
- percent remaining (measured here: human plasma stability, 180 min): 100%
Structure (SMILES): COc1cc([N+](=O)[O-])cc2c1NC(C1CC=CCC1)C1CC=CC21 (configuration not stated)
